Assay results published in US12655174B2, “Adenosine A3 receptor agonists, preparation methods and uses thereof” (ZHEJIANG VIMGREEN PHARMACEUTICALS, LTD., priority 2020, dated 2026).

Key:
[1] = Pharmacokinetic test of compound in SD rat; type: in vivo; settings: SD rats, intragastric administration (IG), cassette dosing
Description: Example 28: Pharmacokinetic Test of Compound in SD Rat
The animal species used in this experiment were SD rats. There were 3 animals per group. The rats were dosed in cassette format, i.e., multiple (1-6) different compounds were dosed simultaneously to the same group of the SD rats. The vehicle used for the drug was 5% DMSO+5% Solutl+90% ([…] methylcellulose M450), and the administration route was intragastric administration (IG).

[2] = molecular target: T1, ADORA3 receptor (Homo sapiens, UniProt P0DMS8); assay: Agonistic effect on adenosine A3 receptor by FLIPR assay (calcium flux assay); type: cell-based; settings: agonist mode
T1 sequence (P0DMS8 1-318): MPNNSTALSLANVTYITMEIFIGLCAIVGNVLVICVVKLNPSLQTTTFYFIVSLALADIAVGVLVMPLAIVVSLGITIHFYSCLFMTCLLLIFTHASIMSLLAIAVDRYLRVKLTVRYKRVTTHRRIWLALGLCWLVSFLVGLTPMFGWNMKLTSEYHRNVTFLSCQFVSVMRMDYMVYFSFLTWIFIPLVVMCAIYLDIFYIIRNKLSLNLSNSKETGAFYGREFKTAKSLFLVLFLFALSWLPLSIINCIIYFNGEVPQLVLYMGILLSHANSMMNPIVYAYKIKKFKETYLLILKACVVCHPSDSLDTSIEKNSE
Description: Example 27: Agonistic Effect of Compound on Adenosine A3 Receptor by FLIPR Assay (Calcium Flux Assay)
First Day: Cell Inoculation
• 1) With regard to ADORA3 receptor, cultured cells were used for inoculation: the culture medium was aspirated and the cells were washed twice with 10 mL of DPBS. 2 mL of 0.05% EDTA-trypsin was added and the cells were incubated at 37° C. for 1 minute. Then 10 mL of the culture medium was added to stop the digestion and the cell suspension was transferred to a 50-mL tapered tube. • 2) The 50-mL tapered tube containing the various cells was centrifuged at 300 g for 5 minutes. • 3) A supernatant was aspirated and no cells should be aspirated. • 4) The cell precipitate was resuspended in 6-8 mL of the culture medium, and then 0.5 mL of the cells were taken out for cell counting by using a Vi-cell XR cell viability analyzer. • 5) The cell suspension was diluted to 1×10^6 cells/mL (20 μL of 20,000 cells per well) in the culture medium and the cells were inoculated into a cell plate (384-well Poly-D-lysine protein-coated plate, Greiner-781946). • 6) The plate was placed in a 37° C./5% CO2 incubator for 16-20 hours. Second Day: • 1) Preparation of 2×Fluo-4 Direct™ uptaking dye • a. Preparation of probenecid solution • 1 mL of FLIPR assay buffer was added to 77 mg of probenecid (provided by Fluo-4 Direct™ calcium assay kit) to be prepared into 250 mM of a probenecid solution. The fresh probenecid solution was used daily. • b. 2×(8 μM) Fluo-4 Direct™ loading dye (per 10 mL)
A vial of the Fluo-4 Direct™ crystal was thawed and then 10 mL of the FLTPR analytical buffer was added to the vial. Then 0.2 mL of 250 mM of a probe solution was added to every 10 mL Fluo-4 Direct™ crystal to a final assay concentration of 2.5 mM. The solution was vortexed and stood for >5 min at a dark place. 2×Fluo-4 Direct™ uptaking dye was freshly prepared daily. • 2) Compound preparation • a. Preparation of compound plate: all reference and test compounds were serially diluted 4-fold in 10 points by using an Echo liquid processor and then 900 nL of the diluted compounds were transferred to a compound plate. • b. 30 μL FLIPR analytical buffer was added to the compound plate and the plate was centrifuged at 300 g for 1 minute. • 3) FLIPR analysis • a. With regard to ADORA3 receptor: firstly, the cell plate was taken out from a culture box. The culture medium was then aspirated and 20 μL of the FLIPR analytical buffer was added. The cell plate was placed in an incubator for 45 minutes and at a room temperature for 15 minutes. • b. To run an experimental solution on […], 10 μL of the FLIPR analytical buffer was transferred from the compound plate to a cell plate, and then the fluorescent signal was read. Then 10 μL of a compound solution was transferred from the compound plate to the cell plate and the fluorescence signal was read. “Max−min” was calculated from Reader 91 to an allowed maximum value. • c. With regard to agonist: activation %=(RLU−LC)/(HC−LC)*100, • wherein RLU=relative light unit, allowed maximum signal was 91; HC=average signal of high concentration agonist; and LC=mean signal of DMSO well. • d. Data were fitted to a model “log (agonist) versus response-variable slope” by using GraphPad Prism 5 to determine an EC50 value. • e. […] 2. Test Result

[3] = molecular target: T2, ADORA3 receptor (CHO cells stably expressing ADORA3 receptor) (Homo sapiens, UniProt P0DMS8); assay: Effect of compound on intracellular cAMP level by adenosine A3 receptor agonism; type: cell-based; settings: forskolin-stimulated
T2 construct: expressed in transfected cells
T2 sequence (P0DMS8 1-318): T1 sequence (P0DMS8 1-318)
Description: Example 26: Test the Effect of Compound on Intracellular cAMP Level by Adenosine A3 Receptor Agonism
• 1) 1×HBSS with Ca2+ and Mg2+ (14 mL), 1 M HEPES (75 μL), a 7.5% (w/v) BSA stabilizer (pH 7.4, 200 μL), and 20 mM rolipram (7.5 μL) were respectively prepared as cAMP assay buffer. • 2) Preparation of compound source plate • a. […] A 10 mM stock solution was subjected to a 3-fold serial dilution by 100% (v/v) DMSO to prepare 10 doses of the test substance. • c. 1 mM of Forskolin was prepared by 100% (v/v) DMSO. • 3) Preparation of test plate • a. Prior to the assay, CHO cells stably expressing ADORA3 receptor were harvested and the cells were counted by using a Countess cell counter. […] The cells were seeded at a density of 2,000 cells/well in a 384-well plate. • 4) 10 nL/well of the serially diluted compound and 10 nL/well of 1 mM of forskolin were transferred to each well with ADORA3 receptor expressing cells by using Echo550. • 5) A cell plate was centrifuged at 1,000 rpm for 1 minute and then stirred at 600 rpm for 2 minutes. The plate was incubated at 37° C. • 6) An Eu-cAMP tracer working solution and an Ulight-anti-cAMP working solution were prepared according to the following table.
• 7) 5 μl/well of the Eu-cAMP tracer working solution and 5 μl/well of the Ulight-anti-cAMP working solution were added to each well of the plate. […] 2. Data Analysis • 1) An activation percentage was calculated by using the following formula:
[formula] • % Activation: activation percentage • Ratiocpd: ratio of emissivity of test compound • RatioLow control: ratio of low emissivity • RatioHigh control: ratio of high emissivity • 2) EC50 was calculated by an XLfit using the Hill equation to fit the activity percentage and a log of a compound concentration. 3. Test Result

SMILES | AUC_D [1] [kg·ng·h/mL/mg] | EC50 [2] [nM] | EC50 [3] [nM]
CNC(=O)[C@H]1O[C@@H](n2cnc3c(NCc4cc(C)ccc4F)nc(-c4cncc(C)c4)nc32)[C@H](O)[C@@H]1O [compound 193, (2S,3S,4R,5R)-5-(6-(2-fluoro-5-methylbenzylamino)-2-(5-methylpyridin-3-yl)-9H-purin-9-yl)-3,4-dihydroxyl-N-methyl-tetrahydrofuran-2-formamide] | 2969.40 | 10.9 | –
CNC(=O)[C@H]1OC(n2cnc3c(NCc4cc(C)cc(C)c4)nc(-c4cncc(OC)c4)nc32)[C@H](O)[C@@H]1O (stereo in doubt) [compound 298, (2S,3S,4R,5S)-5-(6-((3,5-dimethylbenzyl)amino)-2-(5-methoxypyridin-3-yl)-9H-purin-9-yl)-3,4-dihydroxyl-N-methyltetrahydrofuran-2-carboxamide] | 4423.94 | 37 | –
CNC(=O)[C@H]1O[C@@H](n2cnc3c(NCc4cc(C)ccc4F)nc(-c4cncc(F)c4)nc32)[C@H](O)[C@@H]1O [compound 192, (2S,3S,4R,5R)-5-(6-(2-fluoro-5-methylbenzylamino)-2-(5-fluoropyridin-3-yl)-9H-purin-9-yl)-3,4-dihydroxyl-N-methyl-tetrahydrofuran-2-formamide] | 3329.08 | 9.24 | –
CNC(=O)[C@H]1O[C@@H](n2cnc3c(NCc4cc(C)cc(C)c4)nc(-c4cncc(C)c4)nc32)[C@H](O)[C@@H]1O [compound 231, (2S,3S,4R,5R)-5-(6-((3,5-dimethylbenzyl)amino)-2-(5-methylpyridin-3-yl)-9H-purin-9-yl)-3,4-dihydroxyl-N-methyltetrahydrofuran-2-carboxamide] | 17240.04 | 11.2 | –
CCNC(=O)[C@H]1O[C@@H](n2cnc3c(NC)nc(-c4cccnc4)nc32)[C@H](O)[C@@H]1O [compound 42, (2S,3S,4R,5R)-N-ethyl-3,4-dihydroxyl-5-(6-(methylamino)-2-(pyridin-3-yl)-9H-purin-9-yl)-tetrahydrofuran-2-formamide] | – | 12.7 | –
CCNC(=O)[C@H]1O[C@@H](n2cnc3c(NC)nc(-c4cncc(F)c4)nc32)[C@H](O)[C@@H]1O [compound 43, (2S,3S,4R,5R)-N-ethyl-5-(2-(5-fluoropyridin-3-yl)-6-(methylamino)-9H-purin-9-yl)-3,4-dihydroxyl-tetrahydrofuran-2-formamide] | 87.99 | 11.4 | –
CCNC(=O)[C@H]1O[C@@H](n2cnc3c(NC)nc(-c4cncc(C)c4)nc32)[C@H](O)[C@@H]1O [compound 72, (2S,3S,4R,5R)-N-ethyl-3,4-dihydroxyl-5-(6-(methylamino)-2-(5-methylpyridin-3-yl)-9H-purin-9-yl)tetrahydrofuran-2-carboxamide] | 75.08 | 20.6 | –
CNC(=O)[C@H]1O[C@@H](n2cnc3c(NCc4cccc(Cl)n4)nc(-c4cncc(F)c4)nc32)[C@H](O)[C@@H]1O [compound 227, (2S,3S,4R,5R)-5-(6-(((6-chloropyridin-2-yl)methyl)amino)-2-(5-fluoropyridin-3-yl)-9H-purin-9-yl)-3,4-dihydroxyl-N-methyltetrahydrofuran-2-carboxamide] | 233.07 | 3.53 | –
CNC(=O)[C@H]1OC(n2cnc3c(NCc4cc(C)cc(C)c4)nc(-c4cccnc4)nc32)[C@H](O)[C@@H]1O (stereo in doubt) [compound 297, (2S,3S,4R,5S)-5-(6-((3,5-dimethylbenzyl)amino)-2-(pyridin-3-yl)-9H-purin-9-yl)-3,4-dihydroxyl-N-methyltetrahydrofuran-2-carboxamide] | 2349.41 | 12.9 | –
CCNC(=O)[C@H]1O[C@@H](n2cnc3c(NC)nc(-c4cncc(OC)c4)nc32)[C@H](O)[C@@H]1O [compound 73, (2S,3S,4R,5R)-N-ethyl-3,4-dihydroxyl-5-(2-(5-methoxypyridin-3-yl)-6-(methylamino)-9H-purin-9-yl)tetrahydrofuran-2-carboxamide] | – | 29.6 | –
CNC(=O)[C@H]1O[C@@H](n2cnc3c(NCc4cc(C)ccc4F)nc(-c4cncc(OC)c4)nc32)[C@H](O)[C@@H]1O [compound 194, (2S,3S,4R,5R)-5-(6-(2-fluoro-5-methylbenzylamino)-2-(5-methoxypyridin-3-yl)-9H-purin-9-yl)-3,4-dihydroxyl-N-methyl-tetrahydrofuran-2-formamide] | 2043.13 | 10.7 | –
CNC(=O)[C@H]1O[C@@H](n2cnc3c(NCc4cc(C)ccn4)nc(-c4cncc(C)c4)nc32)[C@H](O)[C@@H]1O [compound 190, (2S,3S,4R,5R)-3,4-dihydroxyl-N-methyl-5-(6-((4-methylpyridin-2-yl)methylamino)-2-(5-methylpyridin-3-yl)-9H-purin-9-yl)-tetrahydrofuran-2-formamide] | 2205.59 | 9.06 | –
CCNC(=O)[C@H]1O[C@@H](n2cnc3c(NC)nc(-c4cncc(Cl)c4)nc32)[C@H](O)[C@@H]1O [compound 90, (2S,3S,4R,5R)-5-(2-(5-chloropyridin-3-yl)-6-(methylamino)-9H-purin-9-yl)-N-ethyl-3,4-dihydroxyltetrahydrofuran-2-carboxamide] | – | 25.2 | –
CNC(=O)[C@H]1O[C@@H](n2cnc3c(NCc4cc(C(F)(F)F)ccn4)nc(-c4cncc(Cl)c4)nc32)[C@H](O)[C@@H]1O [compound 294, (2S,3S,4R,5R)-5-(2-(5-chloropyridin-3-yl)-6-(((4-(trifluoromethyl)pyridin-2-yl)methyl)amino)-9H-purin-9-yl)-3,4-dihydroxyl-N-methyltetrahydrofuran-2-carboxamide] | 639.00 | – | 2.62
